In general, Ki refers to a dissociation constant, usually derived from enzyme kinetics or from competition with a known ligand.

Where two headings read alike, the source gives them in different places.

Experiment [1] addresses T1, first (BD1: amino acids K57-E168) bromodomain of BRD4 (Homo sapiens, UniProt O60885).
T1 construct: His-tagged first (BD1: amino acids K57-E168)
As to the kind of experiment: TR-FRET bromodomain binding assay, BRD4 BD1. As to conditions: Ki calculated from IC50, probe Kd and probe concentration, read-out: TR-FRET Binding Ki: BRD4 (BDI_K57-E168). Put shortly: (§1)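 Displacement of Alexa647-labeled BET-inhibitor probe from His-tagged bromodomain, TR-FRET read-out; buffer 20 mM Na phosphate pH 6.0, 50 mM NaCl, 0.01% Triton X-100. IC50 by 4PL fit; Ki calculated from IC50, probe Kd and probe concentration.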

Experiment [2] deals with T2, second (BD2: amino acids E352-E168) bromodomain of BRD4 (Homo sapiens, UniProt O60885).
T2 construct: protocol
Kind of experiment: TR-FRET bromodomain binding assay, BRD4 BD2. The note with it: Ki calculated from IC50, probe Kd and probe concentration, read-out: TR-FRET Binding Ki: BRD4 (BDII_E352-M457). Put shortly: as §1

The mark [3] stands for this setting: TR-FRET assay protocol (A-G, compound concentration range).
Where [4] appears, read: TR-FRET assay protocol (D, E or G) per compound.

Turning to `CCN(CC)S(=O)(=O)c1cccc(-c2cc(=O)n(C)nc2-c2ccccc2Oc2ccccc2)c1` [Example 146, N,N-diethyl-3-[1-methyl-6-oxo-3-(2-phenoxyphenyl)-1,6-dihydropyridazin-4-yl]benzenesulfonamide], the inhibition constant Ki in experiment [1] (setting [3]) was over 13000 nM; in experiment [2] (setting [3]) it was 12200 nM.

Turning to `CC(=O)c1cccc(-c2cc(=O)n(C)nc2-c2ccccc2Oc2ccccc2)c1` [Example 201, 5-(3-acetylphenyl)-2-methyl-6-(2-phenoxyphenyl)pyridazin-3(2H)-one], the Ki is 2410 nM in experiment [1] (setting [3]) and 1710 nM in experiment [2] (setting [3]).

For `Cn1nc(-c2cc(C#N)ccc2Oc2ccccc2)ccc1=O` [Example 13, 3-(1-methyl-6-oxo-1,6-dihydropyridazin-3-yl)-4-phenoxybenzonitrile], the Ki is 13100 nM in experiment [1] (setting [3]) and 10200 nM in experiment [2] (setting [3]).

Consider `CCOc1cc(=O)n(C)cc1-c1cc(NS(=O)(=O)CC)ccc1OC1Cc2ccccc2C1` [Example 394, N-[4-(2,3-dihydro-1H-inden-2-yloxy)-3-(4-ethoxy-1-methyl-6-oxo-1,6-dihydropyridin-3-yl)phenyl]ethanesulfonamide], for which the Ki in experiment [1] (setting [4]) is 272 nM; in experiment [2] (setting [4]), 516 nM.

`Cn1nc(-c2ccccc2Oc2ccccc2)c(-c2ccc(C(=O)NCc3ccccc3)cc2)cc1=O` [Example 182, N-benzyl-4-[1-methyl-6-oxo-3-(2-phenoxyphenyl)-1,6-dihydropyridazin-4-yl]benzamide]: the Ki in experiment [1] (setting [3]) was 531 nM; in experiment [2] (setting [3]) it was 174 nM.

With `COC(=O)Cc1ccc(-c2cc(=O)n(C)nc2-c2ccccc2Oc2ccccc2)cc1` [Example 189, methyl{4-[1-methyl-6-oxo-3-(2-phenoxyphenyl)-1,6-dihydropyridazin-4-yl]phenyl}acetate], the Ki was 3140 nM in experiment [1] (setting [3]) and 1480 nM in experiment [2] (setting [3]).

As to `Cn1nc(-c2ccccc2Oc2ccccc2)c(-c2ccc3c(ccn3C)c2)cc1=O` [Example 208, 2-methyl-5-(1-methyl-1H-indol-5-yl)-6-(2-phenoxyphenyl)pyridazin-3(2H)-one], the Ki was 901 nM in experiment [1] (setting [3]) and 1510 nM in experiment [2] (setting [3]).

For `Cn1nc(-c2ccccc2Oc2ccccc2)c(-c2ccc(Cc3ccccc3)cc2)cc1=O` [Example 93, 5-(4-benzylphenyl)-2-methyl-6-(2-phenoxyphenyl)pyridazin-3(2H)-one], the inhibitory constant (Ki) in experiment [1] (setting [3]) was over 13000 nM; in experiment [2] (setting [3]), 3240 nM.

On to `Cn1nc(-c2ccccc2Oc2ccccc2)c(-c2ccc(C(=O)NCCC#N)cc2)cc1=O` [Example 165, N-(2-cyanoethyl)-4-[1-methyl-6-oxo-3-(2-phenoxyphenyl)-1,6-dihydropyridazin-4-yl]benzamide], for which the Ki is 567 nM in experiment [1] (setting [3]) and 492 nM in experiment [2] (setting [3]).

Turning to `CCS(=O)(=O)c1ccc(OCC2CC2)c(-c2cc(NS(C)(=O)=O)c(=O)n(C)c2)c1` [Example 339, N-{5-[2-(cyclopropylmethoxy)-5-(ethylsulfonyl)phenyl]-1-methyl-2-oxo-1,2-dihydropyridin-3-yl}methanesulfonamide], the figures for the Ki in experiment [1] (setting [3]) and in experiment [2] (setting [3]) were 172 nM and 971 nM, respectively.

As to `CCOc1cc(=O)n(C)cc1-c1cc(S(C)(=O)=O)ccc1NCc1ccc(F)cc1F` [Example 409, 5-{2-[(2,4-difluorobenzyl)amino]-5-(methylsulfonyl)phenyl}-4-ethoxy-1-methylpyridin-2(1H)-one], the Ki in experiment [1] (setting [4]) is 2010 nM; in experiment [2] (setting [4]), 1100 nM.

As for `Cn1cc(-c2cc(NS(C)(=O)=O)ccc2Oc2ccc(F)cc2F)c(Cl)cc1=O` [Example 269, N-[3-(4-chloro-1-methyl-6-oxo-1,6-dihydropyridin-3-yl)-4-(2,4-difluorophenoxy)phenyl]methanesulfonamide], the Ki was 246 nM in experiment [1] (setting [3]) and 204 nM in experiment [2] (setting [3]).

For the compound `CCOc1cc(=O)n(C)cc1-c1cc(N)ccc1Oc1ccc(F)cc1F` [Example 406, 5-[5-amino-2-(2,4-difluorophenoxy)phenyl]-4-ethoxy-1-methylpyridin-2(1H)-one], the Ki in experiment [1] (setting [4]) is 1550 nM; in experiment [2] (setting [4]), 567 nM.

The values above are taken from US9561231B2 (AbbVie Inc., priority 2012, dated 2017).
